Laboratory results published in patent US20170080087A1, “Combination Therapies for Treating Her2-Positive Cancers that are Resistant to Her2-Targeted Therapies” (MERRIMACK PHARMACEUTICALS, INC., priority 2014, published 2017).

Columns and labels:
human cardiomyocytes = assay: Binding and uptake into human cardiomyocytes; format: cell-based; settings: compared with MM-302 and untargeted pegylated liposomal doxorubicin
Text: Additionally, the number of HER2 receptors needed per cell to optimize the binding of MM-302 is approximately 200,000 HER2 receptors per cell. […] The primary mechanism of action of MM-302 is the use of the HER2 protein to selectively deliver doxorubicin into tumor cells that express greater than approximately 200,000 HER2 receptors per cell.

[1] = system: BT-474-M3 breast cancer cells; assay: BT-474-M3 breast cancer xenograft after failure to respond to T-DM1; format: in vivo, mice
Method: The response to the MM-302 and trastuzumab combination after failure to respond to T-DM1 was evaluated in the BT-474-M3 breast cancer xenograft model.
To obtain the BT-474-M3 HER2-overexpressing human breast cancer cell line, BT-474 cells (ATCC® HTB-20™) were passaged twice through mice with the fastest growing two tumors out of ten selected for ex-vivo propagation during each round of selection. Tumors were excised and cultured ex-vivo to obtain the M3 sub-line that was verified by SNP analysis. (see Noble, Cancer Chemother. Pharmacol. 2009 64:741-51).
Mice were inoculated with BT-474-M3 breast cancer cells (15×10^6; into the mammary fat pad). When tumor volumes reached about 360 mm^3, mice were treated with T-DM1 at either 1, 2, or 4 mg/kg (q1w) (white circles). […] At day 55, the mice were switched from T-DM1 treatment to the combination of MM-302 (3 mg/kg, q1w for a total of 3 doses; day 55, 62 and 69) and trastuzumab (at a loading dose of 8 mg/kg followed by 6 mg/kg q1w) (black squares). Changes in tumor volume as well as in mouse weight were monitored twice a week.

level of uptake into human cardiomyocytes (human cardiomyocytes)	Compound	tumor response to single agent ([1]; T-DM1 1, 2 or 4 mg/kg q1w)	slope of tumor volume curve (linear regression) ([1]; days 0-55, during T-DM1 treatment)
relatively much higher	COc1cccc2c1C(=O)c1c(O)c3c(c(O)c1C2=O)C[C@@](O)(C(=O)CO)C[C@@H]3O[C@H]1C[C@H](N)[C@H](O)[C@H](C)O1 [free doxorubicin, (8S,10S)-10-(4-amino-5 hydroxy-6-methyl-tetrahydro-2H-pyran-2-yloxy)-6,8,11-trihydroxy-8-(2-hydroxyacetyl)-1-methoxy-7,8,9,10-tetrahydrotetracene-5,12-dione]	–	–
–	T-DM1	failed to respond	positive slope
